In paper PMC11396129, “Oxindole–benzothiazole hybrids as CDK2 inhibitors and anticancer agents: design, synthesis and biological evaluation” (BMC Chemistry, 2024):

Tests used:
Format in all cases: cell-based, human
PC-3 = experiment: NCI 60 panel growth inhibition (SRB), prostate cancer; conditions: PC-3, 10 μM
Description: (§1) Screening of cytotoxic activity against a panel of sixty human tumor cell lines The selected compounds by NCI were evaluated for their anticancer activity in a two- stage process. […] Then, the output from the single dose screen is reported as a mean graph. […] Assay protocol. […] For a typical screening experiment, cells are inoculated into 96 well microtiter plates in 100 µL at plating densities ranging from 5000 to 40,000 cells/well depending on the doubling time of individual cell lines. […] After 24 h, two plates of each cell line are fixed in situ with TCA, to represent a measurement of the cell population for each cell line at the time of drug addition (Tz). The experimental drugs are solubilized in dimethyl sulfoxide at 400-fold the desired final maximum test concentration and stored frozen prior to use. At the time of drug addition, an aliquot of frozen concentrate is thawed and diluted to twice the desired final maximum test concentration with complete medium containing 50 µg/mL gentamicin. Additional four, 10-fold or ½ log serial dilutions are made to provide a total of five drug concentrations plus control. […] For adherent cells, the assay is terminated by the addition of cold TCA. […] The supernatant is discarded, and the plates are washed five times with tap water and air dried. […] Using the seven absorbance measurements [time zero, (Tz), control growth, (C), and test growth in the presence of drug at the five concentration levels (Ti)], the percentage growth is calculated at each of the drug concentrations levels. Percentage growth inhibition is calculated as: [(Ti Tz)/(C–Tz)] x 100 for concentrations for which Ti>/=Tz and [(Ti-Tz)/Tz] x 100 for concentrations for which Ti < Tz. Three dose response parameters are calculated for each experimental agent. […] The drug concentration resulting in total growth inhibition (TGI) is calculated from Ti = Tz. […] Values are calculated for each of these three parameters if the level of activity is reached; however, if the effect is not reached or is exceeded, the value for that parameter is expressed as greater or less than the maximum or minimum concentration tested.

DU-145 = experiment: as above; conditions: DU-145, 10 μM
Description: as §1

MDA-MB-468 = experiment: NCI 60 panel growth inhibition (SRB), breast cancer; conditions: MDA-MB-468, 10 μM
Description: as §1

MCF7 = experiment: as above; conditions: MCF7, 10 μM
Description: as §1

BT-549 = experiment: as above; conditions: BT-549, 10 μM
Description: as §1

HS 578T = experiment: as above; conditions: 10 μM
Description: as §1

MDA-MB-231/ATCC = experiment: as above; conditions: 10 μM
Description: as §1

786-0 = experiment: NCI 60 panel growth inhibition (SRB), renal cancer; conditions: 786-0, 10 μM
Description: as §1

UO-31 = experiment: NCI 60 panel growth inhibition (SRB), renal cancer; conditions: UO-31, 10 μM
Description: as §1

SN12C = experiment: NCI 60 panel growth inhibition (SRB), renal cancer; conditions: 10 μM
Description: as §1

CAKI-1 = experiment: NCI 60 panel growth inhibition (SRB), renal cancer; conditions: CAKI-1, 10 μM
Description: as §1

ACHN = experiment: NCI 60 panel growth inhibition (SRB), renal cancer; conditions: 10 μM
Description: as §1

A498 = experiment: NCI 60 panel growth inhibition (SRB), renal cancer; conditions: A498, 10 μM
Description: as §1

RXF 393 = experiment: NCI 60 panel growth inhibition (SRB), renal cancer; conditions: RXF 393, 10 μM
Description: as §1

TK-10 = experiment: NCI 60 panel growth inhibition (SRB), renal cancer; conditions: TK-10, 10 μM
Description: as §1

MOLT-4 = experiment: NCI 60 panel growth inhibition (SRB), leukemia; conditions: MOLT-4, 10 μM
Description: as §1

RPMI-8226 = experiment: NCI 60 panel growth inhibition (SRB), leukemia; conditions: RPMI-8226, 10 μM
Description: as §1

HL-60(TB) = experiment: NCI 60 panel growth inhibition (SRB), leukemia; conditions: HL-60(TB), 10 μM
Description: as §1

SR = experiment: NCI 60 panel growth inhibition (SRB), leukemia; conditions: 10 μM
Description: as §1

K-562 = experiment: NCI 60 panel growth inhibition (SRB), leukemia; conditions: K-562, 10 μM
Description: as §1

CCRF-CEM = experiment: NCI 60 panel growth inhibition (SRB), leukemia; conditions: 10 μM
Description: as §1

IGROV1 = experiment: NCI 60 panel growth inhibition (SRB), ovarian cancer; conditions: IGROV1, 10 μM
Description: as §1

OVCAR-8 = experiment: as above; conditions: OVCAR-8, 10 μM
Description: as §1

OVCAR-4 = experiment: as above; conditions: OVCAR-4, 10 μM
Description: as §1

OVCAR-5 = experiment: as above; conditions: OVCAR-5, 10 μM
Description: as §1

OVCAR-3 = experiment: as above; conditions: OVCAR-3, 10 μM
Description: as §1

NCI/ADR-RES = experiment: as above; conditions: 10 μM
Description: as §1

LOX IMVI = experiment: NCI 60 panel growth inhibition (SRB), melanoma; conditions: 10 μM
Description: as §1

M14 = experiment: NCI 60 panel growth inhibition (SRB), melanoma; conditions: M14, 10 μM
Description: as §1

SK-MEL-28 = experiment: NCI 60 panel growth inhibition (SRB), melanoma; conditions: SK-MEL-28, 10 μM
Description: as §1

UACC-62 = experiment: NCI 60 panel growth inhibition (SRB), melanoma; conditions: UACC-62, 10 μM
Description: as §1

SK-MEL-5 = experiment: NCI 60 panel growth inhibition (SRB), melanoma; conditions: SK-MEL-5, 10 μM
Description: as §1

UACC-257 = experiment: NCI 60 panel growth inhibition (SRB), melanoma; conditions: UACC-257, 10 μM
Description: as §1

Row | SMILES | GI% (PC-3) | GI% (DU-145) | GI% (MDA-MB-468) | GI% (MCF7) | GI% (BT-549) | GI% (HS 578T) | GI% (MDA-MB-231/ATCC) | GI% (UO-31) | GI% (SN12C) | GI% (CAKI-1) | GI% (ACHN) | GI% (A498) | GI% (RXF 393) | GI% (TK-10) | GI% (MOLT-4) | GI% (RPMI-8226) | GI% (HL-60(TB)) | GI% (SR) | GI% (K-562) | GI% (CCRF-CEM) | also measured
1 | COc1ccc(-c2nc3ccccc3s2)cc1OCC(=O)NN=C1C(=O)Nc2ccc(Cl)cc21 [Compound 9q, 2-(5-(Benzo[d]thiazol-2-yl)-2-methoxyphenoxy)-N′-(5-chloro-2-oxoindolin-3-ylidene)acetohydrazide] | 26.21% | 19.41% | – (GI% < 5%) | 57.82% | 23.63% | 74.27% | 59.98% | 20.65% | 36.67% | 50.03% | 59.32% | – (GI% < 5%) | 32.76% | 62.99% | 71.36% | 46.48% | – (GI% < 5%) | 18.57% | 50.00% | 81.35% | GI% (786-0): 44.24%; GI% (IGROV1): 16.12%; GI% (OVCAR-8): 59.73%; GI% (OVCAR-4): 25.24%; GI% (OVCAR-5): – (GI% < 5%); GI% (OVCAR-3): 31.89%; GI% (NCI/ADR-RES): 47.55%; GI% (LOX IMVI): 72.29%; GI% (M14): 23.59%; GI% (SK-MEL-28): – (GI% < 5%); GI% (UACC-62): 12.95%; GI% (SK-MEL-5): 12.80%; GI% (UACC-257): – (GI% < 5%)
2 | COc1ccc(-c2nc3ccccc3s2)cc1OCC(=O)NN=C1C(=O)Nc2ccc([N+](=O)[O-])cc21 [Compound 9p, 2-(5-(Benzo[d]thiazol-2-yl)-2-methoxyphenoxy)-N′-(5-nitro-2-oxoindolin-3-ylidene)acetohydrazide] | 11.94% | – (GI% < 5%) | 17.86% | 17.21% | 54.51% | 96.22% | 49.20% | 19.08% | 37.68% | 45.22% | 76.97% | 20.06% | 99.84% | 96.63% | – (GI% < 5%) | – (GI% < 5%) | – (GI% < 5%) | – (GI% < 5%) | – (GI% < 5%) | 9.28% | GI% (786-0): 87.35%; GI% (IGROV1): 41.60%; GI% (OVCAR-8): 38.18%; GI% (OVCAR-4): 13.06%; GI% (OVCAR-5): – (GI% < 5%); GI% (OVCAR-3): – (GI% < 5%); GI% (NCI/ADR-RES): 19.93%; GI% (LOX IMVI): 13.12%; GI% (M14): – (GI% < 5%); GI% (SK-MEL-28): – (GI% < 5%); GI% (UACC-62): 19.19%; GI% (SK-MEL-5): 5.61%; GI% (UACC-257): – (GI% < 5%)
3 | COc1ccc(-c2nc3ccccc3s2)cc1OCC(=O)NN=C1C(=O)Nc2ccccc21 [Compound 9m, 2-(5-(Benzo[d]thiazol-2-yl)-2-methoxyphenoxy)-N′-(2-oxoindolin-3-ylidene) acetohydrazide] | 7.63% | 5.42% | 8.24% | 33.97% | – (GI% < 5%) | – (GI% < 5%) | 9.78% | – (GI% < 5%) | 7.15% | 9.28% | 19.82% | – (GI% < 5%) | – (GI% < 5%) | 10.32% | 23.70% | 25.46% | – (GI% < 5%) | 12.20% | 11.23% | 40.05% | GI% (IGROV1): – (GI% < 5%); GI% (OVCAR-8): 20.84%; GI% (OVCAR-4): 16.50%; GI% (OVCAR-5): – (GI% < 5%); GI% (OVCAR-3): – (GI% < 5%); GI% (NCI/ADR-RES): 28.96%; GI% (LOX IMVI): 18.28%; GI% (M14): – (GI% < 5%); GI% (SK-MEL-28): – (GI% < 5%); GI% (UACC-62): – (GI% < 5%); GI% (SK-MEL-5): – (GI% < 5%); GI% (UACC-257): – (GI% < 5%)
